Tested on: U87MG tumor-bearing mice
Experiment: Ex vivo biodistribution of 68Ga-labeled radiotracers in U87MG xenografts
Protocol: U87MG and PC3 tumor-bearing mice: Female athymic BALB/c (6 weeks/16–20 g) and male athymic BALB/c nude mice (6 weeks/20–25 g) were implanted with U87MG or PC3 cells (5 × 10^6/100 µL PBS) into their right shoulder, respectively. The animals were used for biodistribution and PET/SPECT/CT imaging studies (Animal License No: BE98/2021).
Ten pmol (0.08–0.1 MBq) of the radiotracers in 100 µL of NaCl 0.9% were injected intravenously into the tail vein of U87MG and PC3 tumor-bearing mice and biodistribution studies were conducted at 1, 2, and 3 h after injection.
Saturation Binding Studies […]
The radioactivity of the culture medium, the receptor bound , the internalized and the externalized fractions were measured in a γ -counter. The externalized fraction of radioactivity was ex-pressed as the percentage of the total internalized amount.
[68Ga]Ga -DOTA.SA.FAPi and [ 68Ga]Ga -DOTAGA.(SA.FAPi) 2
Ten pmol ( 0.08 –0.1 MBq) of [68Ga]Ga -monomer and [ 68Ga]Ga -dimer in 100 µ L of NaCl 0.9% were injected intravenously into the tail vein of U87MG or PC3 tumor bearing mice . The PC3 tumor-bearing mice were used between the 15th and 17th day after the xenograft implantation and the size was 281 ± 75 mm3. The U87MG tumor-bearing mice were used between the 7th and 9th day after the implantation and the size was 210 ± 34 mm3. Animals were terminally anesthetized by intraperitoneal injection of an overdose of pento-barbital natrium (150 mg/kg; Streuli Pharma SA, Uznach, Switzerland) at 1, 2 and 3 h after injection of the radiotracers. The organs of interest were dissected and weighed, and the radioactivity in the tissue samples […]
was counted in a γ-counter. Biodistribution data are given as the percent of injected activity per gram of tissue (% IA/g) and as means ± SD (n = 4). […]
each radiotracer along with 20 nmol of UAMC1110 (total injected volume: 100 µL) and biodistribution stud-ies were performed 2 h after injection.
[177Lu]Lu-DOTA.SA.FAPi and [177Lu]Lu-DOTAGA.(SA.FAPi)2
Ten pmol (0.06-0.08 MBq) of [177Lu]Lu-monomer and [177Lu]Lu-dimer in 100 µL of NaCl 0.9% were injected intravenously into the tail vein of PC3 tumor-bearing mice. The PC3 tumor-bearing mice were used between the 15th and 17th day after the xenograft implantation and its size was 281 ± 75 mm3. Animals were terminally anesthetized by intraperitoneal injection of an overdose of pentobarbital natrium (150 mg/kg; Streuli Pharma SA, Uznach, Switzerland) 1, 4, 24 and 48 h after the injection of [177Lu]Lu-DOTA.SA.FAPi and at 4, 24, 48, 72 and 96 h after the injection of [177Lu]Lu-DOTAGA.(SA.FAPi)2. The organs of interest were dissected and weighed, and the radioactivity in the tissue samples was counted in a γ-counter. The biodistribution data are given as the percent of injected activity per gram of tissue (% IA/g) and as means ± SD (n = 4). […]
blood pools or if they were necrotic. Both tumor types were “clean” without extended vascularization; there […]
Small Animal Imaging Studies
PET images were obtained after injection of 200 pmol of [68Ga]Ga-DOTA.SA.FAPi and [68Ga]Ga-DOT-AGA.(SA.FAPi)2 (1.0–1.6 MBq/100 μL) into U87MG or PC3 xenografts at 1, 2 and 3 h after injection. Static imaging was acquired for a time period between 10 and 45 min at 1, 2 and 3 h post injection, respectively.
To visualize the extent of FAP-specific tumor uptake, PET/CT blocking studies were performed as described above, and static scans were obtained for 30 min 2 h after the injection of the radiotracer along with the blocking agent (20 nmol).
PET images were corrected for gallium-68 decay and reconstructed with 12 iterations of the maximum a posteriori (MAP) algorithm using a voxel size of 0.25 mm. No correction was applied for attenuation. In addition, a point spread function iterative deconvolution was applied. The images were normalized, filtered using a Gaussian 3D algorithm with a 1.3 mm isotropic kernel and generated using PMOD software. The CT was carried out using step and shoot mode and employed 45 kVp and 400 uA as settings. The images […]

[1] = 2 h blocking (20 nmol UAMC1110)

## N#C[C@@H]1CC(F)(F)CN1C(=O)CNC(=O)c1ccnc2ccc(OCCCCNc3c(NCCNC(=O)CN4CCN(CC(=O)[O-])CCN(CC(=O)[O-])CCN(CC(=O)[O-])CC4)c(=O)c3=O)cc12.[68Ga+3] [[^68Ga]Ga-DOTA.SA.FAPi]
1 h
  Biodistribution Blood: 13.4 ± 0.2 % IA/g
  Biodistribution Bone: 2.1 ± 0.2 % IA/g
  Biodistribution Heart: 4.9 ± 0.6 % IA/g
  Biodistribution Intestine: 2.9 ± 0.5 % IA/g
  Biodistribution Kidney: 3.5 ± 0.7 % IA/g
  Biodistribution Liver: 3.2 ± 0.4 % IA/g
  Biodistribution Lung: 3.2 ± 1.7 % IA/g
  Biodistribution Muscle: 2.6 ± 1.4 % IA/g
  Biodistribution Pancreas: 9.7 ± 2.7 % IA/g
  Biodistribution Spleen: 2.3 ± 0.4 % IA/g
  Biodistribution Stomach: 2.1 ± 0.6 % IA/g
  Biodistribution U87MG-Tumor: 6.5 ± 0.7 % IA/g
  Tumor/Blood ratio: 0.5 ± 0.03
  Tumor/Liver ratio: 2.0 ± 0.3
  Tumor/Muscle ratio: 2.3 ± 0.7
  Tumor/Pancreas ratio: 0.7 ± 0.2
2 h
  Biodistribution Blood: 8.5 ± 1.5 % IA/g
  Biodistribution Bone: 1.3 ± 0.2 % IA/g
  Biodistribution Heart: 3.1 ± 0.9 % IA/g
  Biodistribution Intestine: 3.2 ± 0.7 % IA/g
  Biodistribution Kidney: 2.7 ± 0.6 % IA/g
  Biodistribution Liver: 3.1 ± 0.9 % IA/g
  Biodistribution Lung: 2.2 ± 1.0 % IA/g
  Biodistribution Muscle: 2.8 ± 1.1 % IA/g
  Biodistribution Pancreas: 10.5 ± 2.8 % IA/g
  Biodistribution Spleen: 1.6 ± 0.5 % IA/g
  Biodistribution Stomach: 2.0 ± 0.5 % IA/g
  Biodistribution U87MG-Tumor: 5.2 ± 1.4 % IA/g
  Tumor/Blood ratio: 0.7 ± 0.3
  Tumor/Liver ratio: 1.7 ± 0.5
  Tumor/Muscle ratio: 1.9 ± 1.5
  Tumor/Pancreas ratio: 0.5 ± 0.2
[1]
  Biodistribution Blood: 0.5 ± 0.1 % IA/g
  Biodistribution Bone: 1.7 ± 0.6 % IA/g
  Biodistribution Heart: 0.7 ± 0.3 % IA/g
  Biodistribution Intestine: 1.3 ± 0.1 % IA/g
  Biodistribution Kidney: 2.5 ± 0.8 % IA/g
  Biodistribution Liver: 0.3 ± 0.03 % IA/g
  Biodistribution Lung: 1.1 ± 0.2 % IA/g
  Biodistribution Muscle: 1.4 ± 0.8 % IA/g
  Biodistribution Pancreas: 0.6 ± 0.4 % IA/g
  Biodistribution Spleen: 0.7 ± 0.3 % IA/g
  Biodistribution Stomach: 0.7 ± 0.4 % IA/g
  Biodistribution U87MG-Tumor: 1.1 ± 0.8 % IA/g
3 h
  Biodistribution Blood: 6.2 ± 0.5 % IA/g
  Biodistribution Bone: 3.0 ± 1.6 % IA/g
  Biodistribution Heart: 3.7 ± 0.7 % IA/g
  Biodistribution Intestine: 3.5 ± 0.7 % IA/g
  Biodistribution Kidney: 3.4 ± 0.3 % IA/g
  Biodistribution Liver: 3.9 ± 0.3 % IA/g
  Biodistribution Lung: 3.1 ± 1.0 % IA/g
  Biodistribution Muscle: 3.1 ± 0.9 % IA/g
  Biodistribution Pancreas: 8.7 ± 1.3 % IA/g
  Biodistribution Spleen: 2.8 ± 1.0 % IA/g
  Biodistribution Stomach: 2.2 ± 0.5 % IA/g
  Biodistribution U87MG-Tumor: 4.9 ± 1.0 % IA/g
  Tumor/Blood ratio: 0.8 ± 0.3
  Tumor/Liver ratio: 1.3 ± 0.5
  Tumor/Muscle ratio: 1.7 ± 1.2
  Tumor/Pancreas ratio: 0.6 ± 0.3
